# Laboratory results reported in PubChem BioAssay AID2060883 (Molecular Pharmacology Branch, DTP, NCI, 2025).
# System: 843782-103-R-J1-PDC complex spheroid viability
# Experiment: Anticancer human tumor 843782-103-R-J1-PDC patient-derived lung adenocarcinoma cell line growth inhibition [RAS]
# Settings: for IC50: curve of first compound; for viability, T/C: stronger effect = lower value
# From the text: RAS pathway inhibitors in Combinations in Complex Spheroids
# A high-throughput screen of multi-cell type tumor spheroids was designed to identify active combinations of RAS pathway inhibitors and targeted small molecules. Complex spheroids include a stromal component modeled by human endothelial cells (HUVEC) and fibroblasts modeled by human mesenchymal stem cells (MSCs). The concentration ranges selected for each drug and investigational agent were based upon clinically achievable concentrations if the clinical Cmax of the agent was known.
# Compounds. The drugs and investigational agents: abemaciclib (NSC768073), cobimetinib (NSC768068), divarasib (GDC6063, NSC841802), docetaxel (NSC628503), GDC-1971 (RLY-1971, NSC841576), gemcitabine (NSC613327), inavolisib (NSC800729), ipatasertib (NSC767898), KB-0742 (NSC834161), MRTX-1133 (NSC836407), osimertinib (NSC779217), RMC-4630 (NSC839698), RMC-6236 (NSC851965), RMC-6291 (NSC852671), Ro-3306 (NSC812927), sapanisertib (NSC764658), SN-38 (NSC673596), staurosporine (NSC755774), SY5609 (NSC837396), and tovorafenib (DAY101, NSC766906), were obtained from the National Cancer Institute (NCI) Developmental Therapeutics Program Chemical Repository. The FDA-approved anticancer drug set is available from the NCI Developmental Therapeutics Program. […] The stock solutions were prepared in dimethyl sulfoxide (DMSO, Sigma-Aldrich, St. Louis, MO, cat. D2650) at 800-fold the tested concentration and stored at -70 degrees C prior to their use. All drugs and investigational agents were tested over a range starting from a high concentration at or near the clinical Cmax and decreasing in half-log increments. If the clinical Cmax for an agent had not been determined, the highest concentration tested was 10 microM.
# Cell Culture. All cells were maintained in an incubator at 37 degrees C and 5% CO2 with 95% humidity. The PDC lines were cultured according to standard operating procedures established by the NCI PDMR. All PDCs were thawed and cultured in Matrigel-coated flasks prepared with a working solution of 1X Ham's F-12 nutrient mix, without supplementation (Invitrogen, Waltham, MA, cat. 11765054), 100 U/mL penicillin-streptomycin (Invitrogen, cat. 15140122), and 2.5% Matrigel (Corning Inc., Corning, NY, cat. 354248) for the first three passages. The 362531-283-R-J2-PDC and 782815-120-R-J1-PDC lines were cultured in 6C/Colon 1B media, which includes advanced DMEM/F-12 (Thermo Fisher Scientific, cat. 12634028), 10 mM HEPES (Thermo Fisher Scientific, cat. 15630080), 1X GlutaMAX supplement (Thermo Fisher Scientific, cat. 35050061), 0.1 mg/mL primocin (InvivoGen, San Diego, CA, cat. ant-pm-2), 10% defined fetal bovine serum, heat inactivated (HyClone Laboratories Inc., Logan, UT, cat. SH30070.03HI), 50% L-WRN conditioned media (ATCC, cat. CRL-3276), 1.25 mM N-Acetyl-L-cysteine (Sigma-Aldrich, cat. A9165), 10 mM nicotinamide (Sigma-Aldrich, cat. N0636), 1X B-27 supplement (Thermo Fisher Scientific, cat. 17504044), 1X N-2 supplement (Thermo Fisher Scientific, cat. 17502048), 50 ng/mL human EGF (Thermo Fisher Scientific, cat. PHG0311), and 10 microM Y-27632 dihydrochloride (Tocris Bioscience, cat. 1254). The K12877-001-R-J1-PDC line was cultured in 6I media, which includes all 6C/Colon 1B media plus 10 ng/mL human FGF-10 (PeproTech, cat. 100-26), 1 ng/mL human FGF-2 (PeproTech, cat. 100-18B), 1 µM prostaglandin E2 (Tocris Bioscience, cat. 2296), […] hydrocortisone (Sigma-Aldrich, cat. H4001), and […] bovine insulin (Sigma-Aldrich, cat. I6634). The K86415-001-R-J1-PDC line was cultured in 6D media, which includes all 6C/Colon 1B media components minus the L-WRN conditioned media. The 485176-168-R4-J1-PDC was cultured in PANC media, which includes all 6C/Colon 1B media plus 100 ng/mL human FGF-10 (PeproTech, cat. 100-26), 500 nM SB-431542 (Selleckchem, cat. S1067), and 10 nM gastrin (Tocris Bioscience, cat. 3006). […]
# 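Note: viability read after seven days of compound exposure.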
structure (smiles),measurement,setting,value
Cc1nc(N2CCC3(CC2)COC(C)C3N)c(CO)nc1Sc1ccnc(N)c1Cl (centres undefined) + CCn1c(-c2cc(N3CCN(C)CC3)cnc2C(C)OC)c2c3cc(ccc31)-c1csc(n1)CC(NC(=O)C1CC1C)C(=O)N1CCCC(N1)C(=O)OCC(C)(C)C2,IC50,second compound 0.000949 µM,51.5 nM
same,IC50,second compound 0.003 µM,31.8 nM
same,IC50,second compound 0.00949 µM,< 31.6 nM
same,IC50,second compound 0.03 µM,< 31.6 nM
same,IC50,second compound 0.0949 µM,< 31.6 nM
same,IC50,second compound 0.3 µM,< 31.6 nM
same,"viability, T/C","second compound 0.000949 µM, first compound 0.0316 µM",54.4%
same,"viability, T/C","second compound 0.000949 µM, first compound 0.1 µM",42%
same,"viability, T/C","second compound 0.000949 µM, first compound 0.316 µM",40.2%
same,"viability, T/C","second compound 0.000949 µM, first compound 1 µM",23.5%
same,"viability, T/C","second compound 0.000949 µM, first compound 3.16 µM",19.4%
same,"viability, T/C","second compound 0.000949 µM, first compound 10 µM",19.2%
same,"viability, T/C","second compound 0.003 µM, first compound 0.0316 µM",50%
same,"viability, T/C","second compound 0.003 µM, first compound 0.1 µM",39.2%
same,"viability, T/C","second compound 0.003 µM, first compound 0.316 µM",29.5%
same,"viability, T/C","second compound 0.003 µM, first compound 1 µM",22.1%
same,"viability, T/C","second compound 0.003 µM, first compound 3.16 µM",19.4%
same,"viability, T/C","second compound 0.003 µM, first compound 10 µM",13.4%
same,"viability, T/C","second compound 0.00949 µM, first compound 0.0316 µM",26.4%
same,"viability, T/C","second compound 0.00949 µM, first compound 0.1 µM",25.6%
same,"viability, T/C","second compound 0.00949 µM, first compound 0.316 µM",20%
same,"viability, T/C","second compound 0.00949 µM, first compound 1 µM",19.6%
same,"viability, T/C","second compound 0.00949 µM, first compound 3.16 µM",15.9%
same,"viability, T/C","second compound 0.00949 µM, first compound 10 µM",15.1%
same,"viability, T/C","second compound 0.03 µM, first compound 0.0316 µM",18.6%
same,"viability, T/C","second compound 0.03 µM, first compound 0.1 µM",17.8%
same,"viability, T/C","second compound 0.03 µM, first compound 0.316 µM",16.4%
same,"viability, T/C","second compound 0.03 µM, first compound 1 µM",15.5%
same,"viability, T/C","second compound 0.03 µM, first compound 3.16 µM",15.5%
same,"viability, T/C","second compound 0.03 µM, first compound 10 µM",14.1%
same,"viability, T/C","second compound 0.0949 µM, first compound 0.0316 µM",17.4%
same,"viability, T/C","second compound 0.0949 µM, first compound 0.1 µM",13.6%
same,"viability, T/C","second compound 0.0949 µM, first compound 0.316 µM",13.3%
same,"viability, T/C","second compound 0.0949 µM, first compound 1 µM",13%
same,"viability, T/C","second compound 0.0949 µM, first compound 3.16 µM",13.5%
same,"viability, T/C","second compound 0.0949 µM, first compound 10 µM",12.2%
same,"viability, T/C","second compound 0.3 µM, first compound 0.0316 µM",13.7%
same,"viability, T/C","second compound 0.3 µM, first compound 0.1 µM",15.5%
same,"viability, T/C","second compound 0.3 µM, first compound 0.316 µM",15.1%
same,"viability, T/C","second compound 0.3 µM, first compound 1 µM",15.4%
same,"viability, T/C","second compound 0.3 µM, first compound 3.16 µM",14%
same,"viability, T/C","second compound 0.3 µM, first compound 10 µM",12.4%
CC1(O)CCCC1n1c(=O)c(C(F)F)cc2cnc(NC3CCN(S(C)(=O)=O)CC3)nc21 (centres undefined) + C#Cc1c(F)ccc2cc(O)cc(-c3ncc4c(N5CC6CCC(C5)N6)nc(OCC56CCCN5CC(F)C6)nc4c3F)c12,IC50,second compound 0.0316 µM,237 nM
same,IC50,second compound 0.1 µM,343 nM
same,IC50,second compound 0.316 µM,283 nM
same,IC50,second compound 1 µM,304 nM
same,IC50,second compound 3.16 µM,149 nM
same,IC50,second compound 10 µM,< 31.6 nM
same,"viability, T/C","second compound 0.0316 µM, first compound 0.0316 µM",98.9%
same,"viability, T/C","second compound 0.0316 µM, first compound 0.1 µM",93.4%
same,"viability, T/C","second compound 0.0316 µM, first compound 0.316 µM",34.7%
same,"viability, T/C","second compound 0.0316 µM, first compound 1 µM",41.8%
same,"viability, T/C","second compound 0.0316 µM, first compound 3.16 µM",23.2%
same,"viability, T/C","second compound 0.0316 µM, first compound 10 µM",3.99%
same,"viability, T/C","second compound 0.1 µM, first compound 0.0316 µM",102%
same,"viability, T/C","second compound 0.1 µM, first compound 0.1 µM",82.7%
same,"viability, T/C","second compound 0.1 µM, first compound 0.316 µM",37%
same,"viability, T/C","second compound 0.1 µM, first compound 1 µM",38.9%
same,"viability, T/C","second compound 0.1 µM, first compound 3.16 µM",23.6%
same,"viability, T/C","second compound 0.1 µM, first compound 10 µM",3.28%
same,"viability, T/C","second compound 0.316 µM, first compound 0.0316 µM",104%
same,"viability, T/C","second compound 0.316 µM, first compound 0.1 µM",77.5%
same,"viability, T/C","second compound 0.316 µM, first compound 0.316 µM",33.8%
same,"viability, T/C","second compound 0.316 µM, first compound 1 µM",37.3%
same,"viability, T/C","second compound 0.316 µM, first compound 3.16 µM",26.5%
same,"viability, T/C","second compound 0.316 µM, first compound 10 µM",3.67%
same,"viability, T/C","second compound 1 µM, first compound 0.0316 µM",97.9%
same,"viability, T/C","second compound 1 µM, first compound 0.1 µM",79.1%
same,"viability, T/C","second compound 1 µM, first compound 0.316 µM",39.2%
same,"viability, T/C","second compound 1 µM, first compound 1 µM",31.7%
same,"viability, T/C","second compound 1 µM, first compound 3.16 µM",26.2%
same,"viability, T/C","second compound 1 µM, first compound 10 µM",3.42%
same,"viability, T/C","second compound 3.16 µM, first compound 0.0316 µM",84.6%
same,"viability, T/C","second compound 3.16 µM, first compound 0.1 µM",56.5%
same,"viability, T/C","second compound 3.16 µM, first compound 0.316 µM",27.6%
same,"viability, T/C","second compound 3.16 µM, first compound 1 µM",33.9%
same,"viability, T/C","second compound 3.16 µM, first compound 3.16 µM",26%
same,"viability, T/C","second compound 3.16 µM, first compound 10 µM",2.68%
same,"viability, T/C","second compound 10 µM, first compound 0.0316 µM",52.9%
same,"viability, T/C","second compound 10 µM, first compound 0.1 µM",32.7%
same,"viability, T/C","second compound 10 µM, first compound 0.316 µM",30.9%
same,"viability, T/C","second compound 10 µM, first compound 1 µM",27.6%
same,"viability, T/C","second compound 10 µM, first compound 3.16 µM",29%
same,"viability, T/C","second compound 10 µM, first compound 10 µM",1.43%
